From paper PMC12750388, “Coumarin-1,2,3-Triazole Conjugates as Molecular Scaffolds for the Selective Induction of ROS-Driven Apoptosis in Cancer Cells in the Development of Pyruvate Kinase M2 Inhibitors” (ACS Omega, 2025)

Columns and labels:
[1] = tested on: caspases 3 and 7 in SCC-9 cells; experiment: Caspase-Glo 3/7 assay; format: cell-based, human; conditions: SCC-9, 2 × IC50, 12 and 24 h
Procedure: Analysis of activation of caspases 3 and 7 was assessed by using the Caspase-Glo 3/7 Assay Kit (Promega Corporation, Madison, WI, USA; G8090). The reagent provided by the kit causes cell lysis; therefore, parallelly, a cell viability assay using violet crystal was performed to normalize the detection of active caspases by viable cells. Caspases 3 and 7 procedures consisted of seeding 5 × 10^3 SCC-9 cells in a 96-well plate. […] A plate with wells without cells was used as a control. Cells and cell-free wells remained in treatment at times of interest. Then, caspase activity was detected according to the manufacturer’s instructions. Results were obtained using a TD 20/20 luminometer (Turner Designs, Sunnyvale, CA, USA). […] Then the medium was removed, and the wells were gently washed with PBS. PBS was removed, and cells were fixed with 100% alcohol that was removed after 10 min. Cells were stained with 0.05% violet crystal for 10 min. Wells were gently washed with deionized water, and […] methanol was added to each well, followed by agitation of the plate for 10 min. Absorbance of wells was read in an EPOCH (BioTek Instruments, Winooski, VT, USA) at an absorbance of 595 nm.

Hemolysis assay = format: cell-based; conditions: isolated human erythrocytes, pH 7.5, read-out: level of hemolysis
Procedure: (§1) A hemolysis assay to evaluate surfactant effects of tested substances was performed using human blood approved by the Research Ethics Committee of Universidade Federal Fluminense (CAAE: 43134721.4.0000.5626). Erythrocytes are isolated upon three repeated centrifugation cycles at 1500 rpm for 15 min. Between each cycle of centrifugation, supernatant was removed, and a pH 7.5 PBS (phosphate-buffered saline) solution supplemented with 10 mM glucose was added to remove lysed erythrocytes. The number of cells was determined in an Automatic Cell Counter (Thermo Fisher, Waltham, MA, USA). Erythrocytes were then plated in 96-well plates at a concentration of 4 × 10^8 cells/well in triplicates, and 10 μL of compounds were added at a final concentration of 300 μM in PBS with glucose (final volume 100 μL). Ten μL of PBS was used as a negative control, and 10 μL of PBS with 0.1% Triton X-100 was used as a positive control. Data reading was performed with EPOCH (BioTek Instruments, Winooski, VT, USA) at an absorbance of 540 nm.

erythrocytes = experiment: Hemolysis assay; format: cell-based; conditions: human erythrocytes, 300 μM
Procedure: as §1

SCC-25 = experiment: MTT cell viability assay, SCC-25; format: cell-based, human
Procedure: The viability of SCC cell lines and primary human fibroblast cells was evaluated using the MTT assay to determine half maximal inhibitory concentration (IC50). Briefly, cells were grown in triplicate in 96-well plates (5 × 10^3 cells/well) until confluence. Then the medium was removed, fresh medium was added, and the cells were returned to the incubator in the presence of different compounds. DMSO at the same concentrations was used as a 100% cell viability control. After 48 h, cells were incubated with 5 mg/mL MTT reagent (3-(4,5-dimethyl-2-thiazolyl)-2,5-diphenyl-2-H-tetrazolium bromide) (Sigma-Aldrich Co., St. Louis, MO, USA) for 3.5 h. After that, formazan crystals were dissolved in MTT solvent solution (DMSO/methanol 1:1 v/v), and the absorbance at 560 nm was evaluated using an EPOCH microplate spectrophotometer (BioTek Instruments, Winooski, VT, USA) with the background absorbance at 670 nm subtracted. Each of the 12 compounds (7a–7l) was tested at six different concentrations, ranging from 6.25 to 200 μM in cancer and normal cell lines. Control (carboplatin) was tested at six different concentrations ranging from 25 μM to 800 μM in cancer cells and from 50 μM to 1600 μM in normal cells.
Half-maximal inhibitory concentration (IC50) values were obtained from the MTT assay of at least three independent replicates through nonlinear regression analysis using GraphPad Prism 5.0 software (Intuitive Software for Science, San Diego, CA, USA). Data were presented as means ± standard deviation (SD). A log dose–response curve (inhibitor vs response) using the least-squares method was used to determine the IC50 and SD from the data. The selectivity index (SI) was calculated as the ratio between the IC50 in normal cells and the IC50 in cancer cells, obtained by dividing the IC50 of normal cells by the IC50 of cancer cells.

SCC-9 cells = experiment: Cytotoxicity assay (cell death inhibition) with z-VAD-fmk and necrostatin-1; format: cell-based; conditions: SCC-9, 2 × IC50 7f, 24 h
Procedure: This investigation consists of pretreating cells with different death inhibitors. For this assay, day SCC-9 cells were seeded in a 96-well plate, and the next day, they were pretreated for 2 h with 20 μM z-VAD-fmk (ZVAD) (Promega Corporation, Madison, WI, USA) and 20 μM necrostatin-1 (Nec-1) (Sigma-Aldrich Co., St. Louis, MO, USA) alone or in combination. […] The plate was incubated for 24 h, and the result was determined through an MTT cell viability assay. The absorbance was measured with an EPOCH (BioTek Instruments, Winooski, VT, USA) spectrometer at 560 nm.

Hep-G2 = experiment: MTT cell viability assay, Hep-G2; format: cell-based, human
C57BL/6 mice = experiment: Acute toxicity assay in vivo; conditions: 14 days
Procedure: All experiments were performed in accordance with the Brazilian guidelines and regulations. Dosing and analysis were performed according to 423 OECD guidelines and reviewed by ref. . An experimental approach was conducted using experimental groups (n = 3) in which each group received a single dose of 7f (100, 200, or 400 mg/kg). […] Control group animals received only 3% DMSO in PBS vehicle. Animals were examined every day, twice a day, for mortality and morbidity for 14 days, and all animals were sacrificed by cervical dislocation. The animals’ body weight and average food consumption were measured every 7 days. […]
increased rear arching, and mobility impairment. The necropsy included an examination of the external characteristics of the carcass; external body orifices; the abdominal, thoracic, and cranial cavities; organs/tissues of liver, thymus, right kidney, right testicle, heart, and lung.
Animals upon euthanasia had their organs evaluated for signs of toxicity or morphological […]
are presented: changes in body weight and food intake, signs of morbidity, possible mortality, and macroscopic alterations in collected organs. Each experimental group consisted of three C57BL/6 mice. The animals were monitored for 14 days, after which they were euthanized and necropsied. […]

[2] = 100 mg/kg single intraperitoneal dose
[3] = 200 mg/kg single intraperitoneal dose
[4] = 400 mg/kg single intraperitoneal dose

Which “caspases 3 and 7 activity, luminescent signal versus DMSO” value [1] does the source give for `O=C1C=C(OCc2cn(CCCOc3cc(=O)oc4ccccc34)nn2)C(=O)c2ccccc21` [Compound 7f, 2-((1-(3-((2-Oxo-2H-chromen-4-yl)oxy)propyl)-1H-1,2,3-triazol-4-yl)methoxy)naphthalene-1,4-dione] here?
The value was “approximately 2 fold”.

What about the hemolysis at 300 µM (Hemolysis assay) of the same compound?
Its hemolysis at 300 µM is about 5%.

What about the “hemolytic activity / membrane integrity” value (erythrocytes) of the same compound?
The value was “lack of significant hemolytic activity”.

And the IC50 (SCC-25; Homo sapiens, SCC-25, MTT, 48 h)?
Its IC50 is 11.1 µM.

What about the “SI SCC-25” value (SCC-25; IC50 human gingival fibroblast / IC50 SCC-25) of the same compound?
The value was 2.05.

And the “cell death after pretreatment with 20 μM z-VAD-fmk (ZVAD)” value (SCC-9 cells)?
Its value is “significantly attenuated”.

And the “cytotoxic effect after pretreatment with 20 μM necrostatin-1 (Nec-1), alone or with ZVAD” value (SCC-9 cells)?
Its value is “failed to reverse the cytotoxic effect”.

What about the IC50 (Hep-G2; HepG2, MTT, human hepatocellular carcinoma) of the same compound?
The IC50 was 16 µM.

And the “SI Hep-G2” value (Hep-G2; versus human gingival fibroblast)?
The value was 1.42.

And the “Change in body weight” value (C57BL/6 mice; [2])?
Its value is “Absent”.

And the “Change in food consumption” value (C57BL/6 mice; [2])?
The value was “Absent”.

And the “Gross Necropsy” value (C57BL/6 mice; [2])?
Its value is “Absent”.

What about the Morbidity (C57BL/6 mice; [2]) of the same compound?
Its Morbidity is “Absent”.

What about the “Change in body weight” value (C57BL/6 mice; [3]) of the same compound?
Its value is “Absent”.

What about the “Change in food consumption” value (C57BL/6 mice; [3]) of the same compound?
Its value is “Absent”.

And the “Gross Necropsy” value (C57BL/6 mice; [3])?
Its value is “Absent”.

And the Morbidity (C57BL/6 mice; [3])?
Its Morbidity is “Absent”.

What about the “Change in body weight” value (C57BL/6 mice; [4]) of the same compound?
The value was “Absent”.

What about the “Change in food consumption” value (C57BL/6 mice; [4]) of the same compound?
Its value is “Absent”.

And the “Gross Necropsy” value (C57BL/6 mice; [4])?
Its value is “Absent”.

What about the Morbidity (C57BL/6 mice; [4]) of the same compound?
Its Morbidity is “Absent”.
